Structures are written as SMILES. “Also recorded” adds a separate entry of the source.

One compound from US20090305244A1, “Selection, Propagation and Use of Mosaic Aneuploid Stem Cells” (The Scripps Research Institute, priority 2005, published 2009) can be followed below.

The test system of test [1] is Mouse ESC. The experiment in a line: Chromosome counts of ESCs treated with taxol during PA6 co-culture differentiation. Format: cell-based. The following applies: FIG. 3. From the text:
(§1) A key attribute of HESCs is their ultimate ability to differentiate into normal, mature cells. There is ample evidence that the differentiation of ES cells can be manipulated to give rise to enriched populations of neuronal cells. Stromal PA6 cells, when used as feeders, promote neural differentiation by inducing mouse ES colonies to become Tuj-1-positive and with robust neuritogenesis (Kawasaki et al., 2000). To examine the differentiation potential of anueploid vs. euploid cells, mammalian ESCs were treated with (aneuploid) or without (euploid) taxol and were examined for their ability to differentiate into neurons when cocultured with PA6 cells. Following 1 week of differentiation, 55% of taxol treated cells had gained chromosomes (FIG. 3).
(§2) Mouse ESC were co-cultured with PA6 cells (Kawasaki et al., 2002) for 1 week under differentiation conditions (DMEM/F12 Glutamax (Gibco, Carlsbad, Calif.), 10% “KNOCKOUT” serum replacement (Gibco), 0.1 mM non-essential aminoacids (Gibco) and 0.1 mM β-mercaptoethanol (Gibco). Cells were treated with taxol (Sigma) at a concentration of 2.5 nM.
HESC Chromosome spreads were obtained by standard protocols (Barch et al., 1997; Rehen et al., 2001). […]
For each sample, 40 metaphase spreads were captured and analyzed by SKY and 70 metaphase spreads counterstained with DAPI were captured for aneuploidy quantification.

Test [2] concerns Mouse ESC. The experiment in a line: Neuronal differentiation of ESCs co-cultured with PA6 cells (tuj1 staining). Format: cell-based. The following applies: taxol 2.5 nM versus without taxol; PA6 co-culture 1 week; FIG. 4.
Text: as §1, §2
Immunofluorescence staining was performed as previously described (Gage et al., 1995), using α-β-tubulin-III (Tuj-1; 1/1000, Covance). Secondary antibodies were purchased from Jackson ImmunoResearch.

As to `CC(=O)O[C@H]1C(=O)[C@@]2(C)[C@H]([C@H](OC(=O)c3ccccc3)[C@]3(O)C[C@H](OC(=O)[C@H](O)[C@@H](NC(=O)c4ccccc4)c4ccccc4)C(C)=C1C3(C)C)[C@]1(OC(C)=O)CO[C@@H]1C[C@@H]2O` [taxol], the “induction of aneuploidy (chromosome counts)” value in the test on Mouse ESC [1] (ESCs on PA6 cells treated with taxol for 6 days) is “induces aneuploidy, specifically hyperploidy”. Also, the “taxol treated cells that had gained chromosomes” value in the test on Mouse ESC [1] (taxol 2.5 nM, following 1 week of differentiation on PA6 cells) is 55%. The “number of neuronally differentiated colonies (tuj1 staining) / neuronal differentiation potential” value with Mouse ESC [2] was “significantly reduces neuronal differentiation potential; also recorded: significant decrease”.
